Measurements taken from patent publication US20250213583A1, “ANTIVIRAL PHARMACEUTICAL COMPOSITION AND USE THEREOF” (priority 2022, published 2025).

Columns and labels:
[1] = system: Calu-3 cells; experiment: Mitochondrial membrane potential by MitoTracker Orange CMTMRos and IFA, SARS-CoV-2 B.1-infected Calu-3 cells; type: cell-based; details: SARS-CoV-2 B.1-infected Calu-3, 30 μM, 24 hpi
Method: Mitochondrial membrane potential probes MitoTracker™ Orange CMTMRos (Invitrogen™ cat #M7510) and JC-1 (Thermo Fisher Scientific, cat #T3168) were used to measure the recovery of mitochondrial membrane potential. Mitotracker™MOrange CMTMRos is a fluorescent dye that stains mitochondria in living cells and can be observed under a confocal microscope at a wavelength of 554 to 576 nm.
Calu-3 cells were seeded on a 4-chamber slide, infected with a virus and treated with Example Compound 1, and then treated with Mitotracker™MOrange CMTMRos at a final concentration of 500 nM in serum-free DMEM for 20 minutes at 37° C. and 5% CO2. Control cells were treated with carbonyl cyanide-p-trifluoromethoxyphenylhydrazone (FCCP) for 20 minutes. All steps were carried out with light blocked, the 4-chamber slide was washed three times with pre-heated PBS, and an immunofluorescence analysis (IFA) was performed.
To evaluate mitochondrial homeostasis by treatment with Example Compound 1, hACE2-A549 cells and Calu-3 cells were infected with SARS-CoV-2 B.1 virus at MOI=0.1 and 1. […]
In addition, after infecting the Calu-3 cells with SARS-CoV-2, the membrane potential of the infected cells was measured using MitoTracker™ Orange CMTMRos and IFA, and the results are shown in FIG. 5C.

[2] = system: SARS-CoV-2 B.1.617.2 (delta); experiment: microbe, parasite or virus in culture; type: cell-based
[3] = system: mitochondrial OXPHOS complexes I, II, III, IV, and V; experiment: Mitochondrial OXPHOS complex expression (mRNAseq DEG) in SARS-CoV-2 B.1-infected hACE2-A549 cells; type: cell-based, human; details: SARS-CoV-2 B.1-infected hACE2-A549, MOI 0.1, 30 μM, 24 hpi
[4] = system: Seoul virus (SEOV); experiment: microbe, parasite or virus in culture; type: cell-based
[5] = system: SARS-CoV-2 B.1; experiment: RT-qPCR of viral RNA, hACE2-A549 cells infected with SARS-CoV-2 B.1; type: cell-based; details: for EC50: read-out: EC50 against the SARS-CoV-2 B.1 virus; for inhibited the replication of SARS-CoV-2 B.1 (RT-qPCR): 24 hpi
[6] = system: Nrf2 signaling pathway (HMOX1, Nqo1); experiment: Nrf2 signaling pathway gene expression (mRNAseq DEG, RT-qPCR) in SARS-CoV-2 B.1-infected hACE2-A549 cells; type: cell-based, human; details: SARS-CoV-2 B.1-infected hACE2-A549, MOI 0.1, 30 μM, 24 hpi
[7] = system: SARS-CoV-2 BA.1 (omicron); experiment: microbe, parasite or virus in culture; type: cell-based
[8] = system: interferon signaling and pro-inflammatory cytokine genes (Ifnβ, Ifit1, Ifit2, Il-6, Tnfα); experiment: Inflammatory cytokine gene expression (mRNAseq DEG, RT-qPCR) in SARS-CoV-2 B.1-infected hACE2-A549 cells; type: cell-based, human
[9] = system: p-MLKL and cleaved caspase-3; experiment: Western blot of cell death factors, SARS-CoV-2 B.1-infected hACE2-A549 cells; type: cell-based, human; details: SARS-CoV-2 B.1-infected hACE2-A549, MOI 0.1, 30 μM, 48 hpi
Method: Cells were lysed using a radioimmunoprecipitation assay (RIPA) buffer (Cell Signaling Technology® cat #9806) and a protease/phosphatase inhibitor mixture (Cell Signaling Technology®, cat #5872). The lysed cells were electrophoresed on 12% and 15% acrylamide gels using sodium dodecyl sulfate polyacrylamide gels at 80 to 120 V for 90 minutes.
The gels were transblotted using polyvinylidene difluoride (PVDF) membranes (Millipore Ltd., cat #617203) at 30 V for 90 minutes. Proteins were transferred to a PVDF membrane and blocked at room temperature for one hour using Tris-buffered saline (TBS) and 0.1% Tween-20 (TBS-T, Bio-Rad Laboratories, Inc., cat #1706531) and 5% skim milk. […] The antibody-treated PVDF membrane was detected with a horseradish peroxidase (HRP) substrate (EMD Millipore Corporation) using VILBER (FUSION Solo S instrument). […]

[10] = system: vaccinia virus (VACV); experiment: microbe, parasite or virus in culture; type: cell-based
[11] = system: Zika virus (ZIKV); experiment: microbe, parasite or virus in culture; type: cell-based
[12] = system: SARS-CoV-2 B.1 nucleocapsid protein; experiment: Western blot of nucleocapsid protein, hACE2-A549 cells infected with SARS-CoV-2 B.1; type: cell-based; details: hACE2-A549, MOI=0.1, 24 hpi
Method: (§1) Vero E6 cells, Calu-3 cells (1×10^6 cells per well), and hACE2-A549 cells (0.5×10^6 cells per well) were seeded in 6-well plates and placed in an incubator at 37° C. and 5% CO2 conditions overnight. When the cells reached approximately 80% density, they were washed twice with pre-heated phosphate-buffered saline (PBS; Gibco™ cat #70011069), 1 mL of 2% FBS medium was added, and the cells were infected at the following multiplicity of infection [MOI] values at 37° C. for two hours (MOI=0.01 for Vero E6 cells, MOI=0.1 for hACE2-A549 cells, and MOI=1 for Calu-3 cells). The infected plate was shaken every 15 minutes to efficiently distribute the infectious material. After two hours of virus adsorption, Example Compound 1 was administered. Next, the supernatants and cells were harvested at 24 hours post infection (hpi).
(§2) Cells were lysed using a radioimmunoprecipitation assay (RIPA) buffer (Cell Signaling Technology® cat #9806) and a protease/phosphatase inhibitor mixture (Cell Signaling Technology®, cat #5872). […]
(§3) The gels were transblotted using polyvinylidene difluoride (PVDF) membranes (Millipore Ltd., cat #617203) at 30 V for 90 minutes. […] The antibody-treated PVDF membrane was detected with a horseradish peroxidase (HRP) substrate (EMD Millipore Corporation) using VILBER (FUSION Solo S instrument). […]

[13] = system: SARS-CoV-2 B.1 nucleocapsid protein; experiment: Western blot of nucleocapsid protein, Vero E6 cells infected with SARS-CoV-2 B.1; type: cell-based; details: Vero E6, MOI=0.01, 30, 20, 10, 1 μM, 24 hpi
Method: as §1, §2, §3

[14] = system: hACE2-A549 cells; experiment: Mitochondrial membrane potential by JC-1 staining, SARS-CoV-2 B.1-infected hACE2-A549 cells; type: cell-based, human; details: SARS-CoV-2 B.1-infected hACE2-A549, 30 μM, 24 hpi
Method: JC-1 is a marker for mitochondrial membrane potential, and appears as a green fluorescent monomer (˜529 nm) at depolarization and abnormal mitochondrial membrane potential. JC-1 was diluted to 10 mM, and the JC-1 solution was treated at a final concentration of 2 μM in serum-free DMEM for 20 minutes at 37° C. and 5% CO2. Control cells were treated with H2O2 for 20 minutes. After JC-1 staining, nuclei were stained using Hoechst 33342 (Thermo Fisher Scientific, cat #62249) for five minutes at room temperature. After each staining step, cells were washed three times with pre-heated PBS and mounted on a glass slide. All steps were carried out with light blocked.
To evaluate mitochondrial homeostasis by treatment with Example Compound 1, hACE2-A549 cells and Calu-3 cells were infected with SARS-CoV-2 B.1 virus at MOI=0.1 and 1. After two hours, the cells were treated with Example Compound 1 at 30 μM, and JC-1 and MitoTracker staining of the hACE2A-549 cells and Calu-3 cells was performed at 24 hpi.

[15] = system: SARS-CoV-2 B.1; experiment: RT-qPCR of viral RNA, Vero E6 cells infected with SARS-CoV-2 B.1; type: cell-based
[16] = system: SARS-CoV-2 B.1; experiment: Plaque assay, hACE2-A549 cells infected with SARS-CoV-2 B.1; type: cell-based; details: hACE2-A549, MOI=0.1, 30 μM, 24 hpi
[17] = system: SARS-CoV-2 B.1; experiment: Plaque assay, Vero E6 cells infected with SARS-CoV-2 B.1; type: cell-based; details: Vero E6, MOI=0.01, 30 μM, 24 hpi
[18] = system: MFN1 and MFN2; experiment: Western blot of mitochondrial fusion factors, SARS-CoV-2 B.1-infected Calu-3 cells; type: cell-based; details: SARS-CoV-2 B.1-infected Calu-3, 24 hpi
[19] = Severe acute respiratory syndrome coronavirus 2
[20] = SARS-CoV-2 B.1-infected hACE2-A549, 30 μM and 1 μM

O=S1(=O)CCN(Cc2cc(NC3CCOCC3)c3[nH]c(-c4ccccc4)cc3c2)CC1 [Example Compound 1, 5-[(1,1-dioxido-4-thiomorpholinyl)methyl]-2-phenyl-N-(tetrahydro-2H-pyran-4-yl)-1H-indol-7-amine]
SARS-CoV-2 nucleocapsid protein (IFA) [1]: significant decrease
mitochondrial membrane potential, MitoTracker accumulation [1]: accumulation of MitoTracker
antiviral effect against SARS-CoV-2 B.1.617.2 (delta) (RT-qPCR) [2]: about 1000 fold
EC50 [2, 19]: 1200 nM
expression of mitochondrial OXPHOS complexes I to V (mRNAseq, DEG) [3]: up-regulated expression of all five OXPHOS complexes
EC50 ([4]; Orthohantavirus seoulense, Vero C1008, read-out: EC50, SEOV): 1900 nM
reduced the expression level of SEOV (RT-qPCR) ([4]; Vero E6, 24 hpi): about 3 times
EC50 ([5]; Severe acute respiratory syndrome coronavirus 2, hACE2-A549, MOI=0.01, 24 hpi): 1400 nM
EC50 ([5]; Severe acute respiratory syndrome coronavirus 2, hACE2-A549, MOI=0.1, 24 hpi): 7000 nM
inhibited the replication of SARS-CoV-2 B.1 (RT-qPCR) ([5]; hACE2-A549, MOI=0.01, 30 µM): about 100 times
inhibited the replication of SARS-CoV-2 B.1 (RT-qPCR) ([5]; hACE2-A549, MOI=0.1, 30 μM): about 100 times
Nrf2 signaling pathway (mRNAseq, DEG) [6]: up-regulated
gene expression of HMOX1 and Nqo1 (RT-qPCR), compared to untreated infected cells [6]: significant increase
antiviral effect against SARS-CoV-2 BA.1 (omicron) (RT-qPCR) [7]: ~30 fold
EC50 [7, 19]: 1100 nM
expression of the interferon signaling and pro-inflammatory cytokine genes (mRNAseq, DEG) ([8]; SARS-CoV-2 B.1-infected hACE2-A549): inhibited the expression
expression of interferon-related genes Ifnβ, Ifit1, and Ifit2 (RT-qPCR) [8, 20]: significantly down-regulated
induction of pro-inflammatory cytokine genes Il-6 and Tnfα (RT-qPCR) [8, 20]: reduced the induction
necrosis-related p-MLKL protein and cell death-related cCaspase 3 protein (Western blot) [9]: inhibited
EC50 ([10]; Orthopoxvirus vaccinia, Vero C1008, read-out: EC50, VACV): 6600 nM
reduced the expression level of VACV (RT-qPCR) ([10]; Vero E6, 24 hpi): about 15 times
reduced the expression level of ZIKV (RT-qPCR) ([11]; Vero E6): about 16 times
EC50 ([11]; Zika virus, Vero C1008, Vero E6, 48 hpi): 7800 nM
expression of SARS-CoV-2 B.1 nucleocapsid protein (Western blot) [12]: decreased in a dose-dependency
expression of SARS-CoV-2 B.1 nucleocapsid protein (Western blot) [13]: decreased in a dose-dependency
mitochondrial membrane potential (JC-1 Aggregate, RED) intensity [14]: intensity level similar to that of the uninfected cells
EC50 ([15]; Severe acute respiratory syndrome coronavirus 2, Vero C1008, Vero E6, MOI=0.01, 24 hpi, read-out: EC50 against SARS-CoV-2 B.1): 1100 nM
SARS-CoV-2 B.1 virus replication inhibited compared to untreated cells (RT-qPCR) ([15]; Vero E6, MOI=0.01, 30 μM, 24 hpi): up to 1,000 times
infectious particles of SARS-CoV-2 B.1 reduced (plaque assay) [16]: 100 fold
infectious particles of SARS-CoV-2 B.1 reduced compared to untreated cells (plaque assay) [17]: 1,000 times
MFN1 and MFN2 protein level (Western blot) [18]: overexpression was suppressed
